These are literature values, as cited in patent US9920347B2, “Methods for producing virus particles with simplified glycosylation of surface proteins” (priority 2010, dated 2018).

One data set has as its target T1, Golgi mannosidase II (Homo sapiens, UniProt Q16706).
T1 sequence (Q16706 1-1144): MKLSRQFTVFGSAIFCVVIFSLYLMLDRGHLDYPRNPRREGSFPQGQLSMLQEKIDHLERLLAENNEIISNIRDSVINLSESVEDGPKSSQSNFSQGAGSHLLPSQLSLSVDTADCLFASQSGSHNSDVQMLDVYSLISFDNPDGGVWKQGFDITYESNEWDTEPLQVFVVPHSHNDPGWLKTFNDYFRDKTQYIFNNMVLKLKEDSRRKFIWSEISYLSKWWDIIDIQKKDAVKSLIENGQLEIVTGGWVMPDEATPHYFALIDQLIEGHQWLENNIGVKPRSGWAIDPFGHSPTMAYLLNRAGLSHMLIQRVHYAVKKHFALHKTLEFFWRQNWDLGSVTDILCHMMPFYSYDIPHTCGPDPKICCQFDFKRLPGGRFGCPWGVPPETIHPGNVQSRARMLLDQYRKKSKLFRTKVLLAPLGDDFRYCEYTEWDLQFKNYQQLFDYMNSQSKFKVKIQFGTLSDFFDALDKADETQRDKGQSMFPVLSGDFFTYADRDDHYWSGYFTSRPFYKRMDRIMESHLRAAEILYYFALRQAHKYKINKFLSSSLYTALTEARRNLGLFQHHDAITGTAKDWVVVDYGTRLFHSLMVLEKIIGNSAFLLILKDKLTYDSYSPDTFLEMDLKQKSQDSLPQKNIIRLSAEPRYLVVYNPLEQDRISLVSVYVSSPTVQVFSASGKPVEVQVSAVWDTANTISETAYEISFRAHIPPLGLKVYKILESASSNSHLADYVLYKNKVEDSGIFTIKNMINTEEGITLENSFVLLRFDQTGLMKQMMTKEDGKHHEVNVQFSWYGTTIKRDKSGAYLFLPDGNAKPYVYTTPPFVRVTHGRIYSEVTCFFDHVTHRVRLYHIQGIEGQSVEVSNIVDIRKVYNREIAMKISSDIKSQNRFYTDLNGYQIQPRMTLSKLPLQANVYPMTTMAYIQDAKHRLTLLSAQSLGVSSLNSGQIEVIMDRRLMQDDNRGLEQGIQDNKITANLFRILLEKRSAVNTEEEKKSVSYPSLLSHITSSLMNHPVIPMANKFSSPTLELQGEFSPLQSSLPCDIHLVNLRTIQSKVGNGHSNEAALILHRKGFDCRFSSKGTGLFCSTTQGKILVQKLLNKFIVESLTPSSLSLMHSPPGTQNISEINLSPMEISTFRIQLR

Another data set concerns intact cells. Particulars: glycoproteins with Man7-9(GlcNAc)2 structures accumulate.
Data set [1] deals with rat epididymal α-mannosidase.
For data set [2], the system named is animal Golgi enzyme, mannosidase I.
In data set [3] the target is alpha-glucosidase amyloglucosidase (Aspergillus niger, UniProt P69328). The note with it: read-out: concentration giving 50% inhibition of amyloglucosidase.
alpha-glucosidase amyloglucosidase, sequence (P69328 25-640): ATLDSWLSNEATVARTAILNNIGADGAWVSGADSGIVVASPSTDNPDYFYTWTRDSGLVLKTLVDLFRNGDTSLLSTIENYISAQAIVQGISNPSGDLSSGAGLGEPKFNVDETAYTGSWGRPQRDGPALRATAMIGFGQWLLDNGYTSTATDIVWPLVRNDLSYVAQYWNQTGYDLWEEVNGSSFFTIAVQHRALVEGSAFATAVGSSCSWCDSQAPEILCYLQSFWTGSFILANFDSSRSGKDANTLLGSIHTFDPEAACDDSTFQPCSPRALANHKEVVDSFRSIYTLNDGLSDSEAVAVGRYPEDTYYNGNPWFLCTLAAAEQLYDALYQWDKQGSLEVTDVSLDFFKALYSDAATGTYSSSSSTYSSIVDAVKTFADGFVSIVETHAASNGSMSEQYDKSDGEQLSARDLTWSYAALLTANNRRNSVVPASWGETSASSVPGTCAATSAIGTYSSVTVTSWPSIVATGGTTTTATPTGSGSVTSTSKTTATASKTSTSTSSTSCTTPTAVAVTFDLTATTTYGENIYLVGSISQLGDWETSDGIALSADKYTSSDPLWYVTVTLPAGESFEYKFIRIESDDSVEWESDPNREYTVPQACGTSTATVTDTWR

Regarding `O[C@H]1[C@H]2[C@H](O)CCCN2C[C@H]1O` [Swainsonine], the “inhibition of Golgi mannosidase II” value at Golgi mannosidase II was “potent inhibitor”. The “effect on mannosidase 1” value in the data set with mannosidase 1 is “no effect”.

Take `OC[C@H]1NC[C@@H](O)[C@@H](O)[C@@H]1O` [Deoxymannojirimycin]: the “inhibition of rat liver mammosidase I” value with rat liver mammosidase I is “fairly potent inhibitor”. Moreover, the “effect on synthesis of complex types of N-linked oligosaccharides” value in the data set with intact cells is “blocked the synthesis of complex types of N-linked oligosaccharides”. Further, the “prevention of formation of complex chains” value in the data set on cultured mammalian cells (50 μg/ml) was “does not prevent the formation of all complex chains”.

With `CS[C@@H]1[C@@H](N)[C@@H](O)[C@@H](O)[C@H]1O` [Mannostatin A], the “inhibition of rat epididymal α-mannosidase” value in data set [1] is on record as “potent inhibitor”.

As for `O[C@H]1[C@H](O)[C@@H](O)CN2CC[C@H](O)[C@H]12` [Castanospermine], in the data set with alpha-glucosidase, the “inhibition of alpha-glucosidase activities” value is listed as “inhibits”. Moreover, the “inhibition of dengue virus infection” value in the data set with dengue virus is listed as “inhibits”.

With `O=C1N[C@@H]2[C@@H](O)[C@@H](O)[C@H](O)[C@@H](CO)N2C1=O` [Kifunensine], the “inhibition of mannosidase I” value in [2] is on record as “inhibits”. Besides, the “shift of N-linked oligosaccharides from complex chains to Man9(GlcNAc)2 structures” value in the data set with cultured mammalian cells (1 μg/ml or higher) is “complete shift”.

For the compound `OC[C@@H]1[C@@H](O)[C@H](O)[C@H]2[C@@H](O)CCN21` [Australine], the IC50 in data set [3] was 5.8 µM. In the data set with beta-glucosidase, the inhibition of beta-glucosidase result was “did not inhibit”. The inhibition of alpha-mannosidase entry with alpha-mannosidase is reported as “did not inhibit”. Besides, the inhibition of beta-mannosidase result in the data set with beta-mannosidase is “did not inhibit”. Moreover, the inhibition of alpha-galactosidase entry in the data set with alpha-galactosidase is listed as “did not inhibit”. In the data set on beta-galactosidase, the inhibition of beta-galactosidase entry is reported as “did not inhibit”.
